These results are taken from PubChem BioAssay AID1259407 (Chemical Carcinogenesis Research Information System (CCRIS), 2018).

The data set relates to CCRIS mutagenicity, Ames/micronucleus/aberration tests. Kind of data set: CCRIS mutagenicity studies.

Active and inactive are the calls of the source. How the calls were made is not given here.

Consider `Cc1ccc(S(=O)(=O)Oc2ccc(N=Nc3ccc(-c4ccc(N=Nc5c(O)ccc6cc(S(=O)(=O)O)cc(S(=O)(=O)O)c56)c(C)c4)cc3C)cc2)cc1`, for which the mutagenic call is “active; positive” (Test System: AMES SALMONELLA TYPHIMURIUM, Strain/Indicator: TA98, Metabolic Activation: HAMSTER, LIVER, S-9, AROCLOR 1254 (10%), Method: PREINCUBATION); “active; positive” (Test System: AMES SALMONELLA TYPHIMURIUM, Strain/Indicator: TA98, Metabolic Activation: HAMSTER, LIVER, S-9, Method: PREINCUBATION (PRIVAL METHOD)); “inactive; negative” (Test System: AMES SALMONELLA TYPHIMURIUM, Strain/Indicator: TA98, Metabolic Activation: NONE, Method: PREINCUBATION); “inactive; negative” (Test System: AMES SALMONELLA TYPHIMURIUM, Strain/Indicator: TA98, Metabolic Activation: RAT, LIVER, S-9, AROCLOR 1254 (10%), Method: PREINCUBATION); “inactive; negative” (Test System: AMES SALMONELLA TYPHIMURIUM, Strain/Indicator: TA100, Metabolic Activation: HAMSTER, LIVER, S-9, AROCLOR 1254 (10%), Method: PREINCUBATION); “inactive; negative” (Test System: AMES SALMONELLA TYPHIMURIUM, Strain/Indicator: TA100, Metabolic Activation: NONE, Method: PREINCUBATION). In addition, the mutagenic call was “inactive; negative” (Test System: AMES SALMONELLA TYPHIMURIUM, Strain/Indicator: TA100, Metabolic Activation: RAT, LIVER, S-9, AROCLOR 1254 (10%), Method: PREINCUBATION); “inactive; negative” (Test System: AMES SALMONELLA TYPHIMURIUM, Strain/Indicator: TA1535, Metabolic Activation: HAMSTER, LIVER, S-9, AROCLOR 1254 (10%), Method: PREINCUBATION); “inactive; negative” (Test System: AMES SALMONELLA TYPHIMURIUM, Strain/Indicator: TA1535, Metabolic Activation: NONE, Method: PREINCUBATION); “inactive; negative” (Test System: AMES SALMONELLA TYPHIMURIUM, Strain/Indicator: TA1535, Metabolic Activation: RAT, LIVER, S-9, AROCLOR 1254 (10%), Method: PREINCUBATION); “inactive; negative” (Test System: AMES SALMONELLA TYPHIMURIUM, Strain/Indicator: TA1537, Metabolic Activation: HAMSTER, LIVER, S-9, AROCLOR 1254 (10%), Method: PREINCUBATION); “inactive; negative” (Test System: AMES SALMONELLA TYPHIMURIUM, Strain/Indicator: TA1537, Metabolic Activation: NONE, Method: PREINCUBATION). Also, the mutagenic call (Test System: AMES SALMONELLA TYPHIMURIUM, Strain/Indicator: TA1537, Metabolic Activation: RAT, LIVER, S-9, AROCLOR 1254 (10%), Method: PREINCUBATION) is “inactive; negative” and the mutagenic call (Test System: AMES SALMONELLA TYPHIMURIUM, Strain/Indicator: TA1538, Metabolic Activation: RAT, LIVER, S-9, AROCLOR 1254, Method: STANDARD PLATE) was “active; positive”.

In the case of `Oc1cc(Cl)cc(Cl)c1O`, the mutagenic call (Test System: CHINESE HAMSTER V-79, Strain/Indicator: V-79/6-THIOGUANINE, Metabolic Activation: CELL MEDIATED, Method: STANDARD PLATE) was “inactive; negative” and the mutagenic call (Test System: CHINESE HAMSTER V-79, Strain/Indicator: V-79/6-THIOGUANINE, Metabolic Activation: NONE, Method: STANDARD PLATE) was “inactive; negative”.

On to `CC(C)(O)CCc1ccc(O)c2c(=O)c3c(O)c4c(cc3oc12)O[C@H]1OC=C[C@@H]41`, for which the mutagenic call is “active; positive” (Test System: AMES SALMONELLA TYPHIMURIUM, Strain/Indicator: TA98, Metabolic Activation: NONE, Method: STANDARD PLATE); “active; positive” (Test System: AMES SALMONELLA TYPHIMURIUM, Strain/Indicator: TA98, Metabolic Activation: RAT, LIVER, S-9, AROCLOR 1254, Method: STANDARD PLATE); “active; positive” (Test System: AMES SALMONELLA TYPHIMURIUM, Strain/Indicator: TA100, Metabolic Activation: NONE, Method: STANDARD PLATE); “active; positive” (Test System: AMES SALMONELLA TYPHIMURIUM, Strain/Indicator: TA100, Metabolic Activation: RAT, LIVER, S-9, AROCLOR 1254, Method: STANDARD PLATE).

Turning to `Cc1ccc2c(ccc3cc4ccccc4cc32)c1`, the mutagenic call runs as follows: (Test System: AMES SALMONELLA TYPHIMURIUM, Strain/Indicator: TA100, Metabolic Activation: RAT, INTACT HEPATOCYTES, AROCLOR 1254, Method: PREINCUBATION) “inactive; negative”; (Test System: AMES SALMONELLA TYPHIMURIUM, Strain/Indicator: TA100, Metabolic Activation: RAT, NADPH-FORTIFIED HOMOGENIZED HEPATOCYTES, AROCLOR 1254, Method: PREINCUBATION) “active; positive”; (Test System: AMES SALMONELLA TYPHIMURIUM, Strain/Indicator: TA100, Metabolic Activation: RAT, SONICATED HEPATOCYTES, AROCLOR 1254, Method: PREINCUBATION) “active; positive”.

For the compound `COc1cccc2cccnc12`, the mutagenic call (Test System: AMES SALMONELLA TYPHIMURIUM, Strain/Indicator: TA100, Metabolic Activation: S-9, Method: PREINCUBATION) was “inactive; negative”.
